Assay [1] has as its target T1, Mu-type opioid receptor (Cavia porcellus, UniProt P97266). The assay is described as follows: Inhibition of [35S]GTP-gamma-S, binding from Opioid receptor mu 1 in Guinea pig Caudate stimulated by DAMGO. Type of assay: functional.
Assay [2] concerns the target T2, Kappa-type opioid receptor (Cavia porcellus, UniProt P41144). In words: Inhibition of [35S]GTP-gamma-S, binding from Opioid receptor kappa 1 in Guinea pig Caudate stimulated by U69,593. Type of assay: functional.
Assay [3] concerns the target T1, Mu-type opioid receptor. The assay is described as follows: Binding affinity determined on Opioid receptor mu 1 in Guinea pig brain membranes using radioligand [3H]DAMGO. Type of assay: cell membranes, Membrane.
For assay [4], the target named is T2, Kappa-type opioid receptor. The assay is described as follows: Binding affinity determined on Opioid receptor kappa 1 in Guinea pig brain membranes using radioligand [3H]U-69593. The format is cell membranes, Membrane.
Assay [5] has as its target T1, Mu-type opioid receptor. In words: Binding affinity determined on Opioid receptor mu 1 in Guinea pig brain membranes using radioligand [3H]DAMGO. The format is cell membranes, Membrane.
Assay [6] deals with Kappa-type opioid receptor (Cavia porcellus) (UniProt P41144). In words: Inhibition against Opioid receptor kappa 1 using selective ligand [3H]U-69593. The following applies: concentration not given here. On the set-up: concentration or dose not given beside the values.
Kappa-type opioid receptor (Cavia porcellus), sequence (P41144 whole entry): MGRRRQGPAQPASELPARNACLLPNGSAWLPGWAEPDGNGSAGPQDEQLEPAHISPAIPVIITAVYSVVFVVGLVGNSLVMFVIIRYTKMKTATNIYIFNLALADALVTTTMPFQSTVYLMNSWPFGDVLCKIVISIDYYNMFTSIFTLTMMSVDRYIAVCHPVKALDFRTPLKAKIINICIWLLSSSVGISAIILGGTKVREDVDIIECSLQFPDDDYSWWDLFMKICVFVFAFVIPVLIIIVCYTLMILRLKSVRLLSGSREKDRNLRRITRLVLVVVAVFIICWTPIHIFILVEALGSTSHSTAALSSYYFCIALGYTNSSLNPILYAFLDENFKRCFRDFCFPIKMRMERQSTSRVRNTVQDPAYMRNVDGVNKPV

Structures are written as SMILES.

We go through 23 compounds from ChEMBL document CHEMBL1131434, “Identification of an opioid kappa receptor subtype-selective N-substituent for (+)-(3R,4R)-dimethyl-4-(3-hydroxyphenyl)piperidine” (J Med Chem, 1998).

T2 sequence (P41144 whole entry): as above
T1 sequence (P97266 whole entry): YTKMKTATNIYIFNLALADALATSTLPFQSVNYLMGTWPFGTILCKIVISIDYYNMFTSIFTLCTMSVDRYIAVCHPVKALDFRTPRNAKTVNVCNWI

Consider `C[C@@H]1CN(C/C=C/c2ccccc2)CC[C@]1(C)c1cccc(O)c1`, for which the Ki at Mu-type opioid receptor [1] is 0.039 nM; in assay [2], 1.04 nM; at Mu-type opioid receptor [3] it was 0.74 nM; in assay [4], 122 nM.
Consider `CCC(C)[C@@H](CN1CCC(C)(c2cccc(O)c2)C(C)C1)NC(=O)CCc1ccc(O)cc1` (some centres not stated), for which the figures for the Ki (at Mu-type opioid receptor [5]; in assay [4]) were 421 nM and 8.84 nM, respectively.
As for `CC(C)C(CN1CCC(C)(c2cccc(O)c2)C(C)C1)NC(=O)CCc1ccccc1O` (configuration not stated), the inhibition in assay [6] came to 25%.
`CC1CN(C[C@H](Cc2ccccc2)NC(=O)CCc2ccc(O)cc2)CCC1(C)c1cccc(O)c1` (some centres not stated) yielded an inhibition constant Ki on Mu-type opioid receptor [5] of 9.6 nM.
As to `COc1ccc(CCC(=O)NC(CN2CCC(C)(c3cccc(O)c3)C(C)C2)C(C)C)cc1` (configuration not stated), the inhibition in assay [6] stood at 16%.
`CC(C)[C@@H](CN1CC[C@@](C)(c2cccc(O)c2)[C@@H](C)C1)NC(=O)CCc1ccc(O)cc1` came in with an inhibition in assay [6] of 71%. The Ki at Mu-type opioid receptor [1] came out at 7.25 nM; in assay [2], 4.7 nM; at Mu-type opioid receptor [3], 393 nM; in assay [4], 6.91 nM.
Take `C[S+](C)[O-]`: in assay [6], the inhibition came out at 4%.
Consider `CC(CN1CCC(C)(c2cccc(O)c2)C(C)C1)NC(=O)CCc1ccc(O)cc1` (configuration not stated), for which, in assay [6], the inhibition amounted to 20%.
For `CC(C)[C@@H](CN1CC[C@@](C)(c2cccc(O)c2)[C@@H](C)C1)NC(=O)CCc1ccccc1`, the inhibition in assay [6] was 28%.
In the case of `CC1CN(CC(c2ccccc2)N(C)C(=O)CCc2ccc(O)cc2)CCC1(C)c1cccc(O)c1` (configuration not stated), in assay [6], the inhibition was determined as 7%.
With `CC(C)C(CN1CCC(C)(c2cccc(O)c2)C(C)C1)NC(=O)CCc1ccc(O)c(O)c1` (configuration not stated), the inhibition in assay [6] turned out to be 31%.
Consider `CC(C)C[C@@H](CN1CCC(C)(c2cccc(O)c2)C(C)C1)NC(=O)CCc1ccc(O)cc1` (some centres not stated), for which, on Mu-type opioid receptor [3], the affinity corresponds to a Ki of 398 nM.
`CC(CN1CCC(C)(c2cccc(O)c2)C(C)C1)N(C)C(=O)CCc1ccc(O)cc1` (configuration not stated): the inhibition in assay [6] was 1%.
On to `COc1cc(CCC(=O)NC(CN2CCC(C)(c3cccc(O)c3)C(C)C2)C(C)C)ccc1O` (configuration not stated), for which, in assay [6], the inhibition worked out at 42%.
Compound `CC(C)C(CN1CCC(C)(c2cccc(O)c2)C(C)C1)NC(=O)/C=C/c1ccc(O)cc1` (configuration not stated) came in with an inhibition in assay [6] of 15%.
On to `CC(C)C(CN1CCC(C)(c2cccc(O)c2)C(C)C1)NC(=O)CCc1ccc(F)cc1` (configuration not stated), for which the inhibition in assay [6] is 26%.
In turn, `CC(C)C(CN1CCC(C)(c2cccc(O)c2)C(C)C1)NC(=O)CCc1cccc(O)c1` (configuration not stated) came in with an inhibition in assay [6] of 20%.
Take `CC(C)[C@H](CN1CC[C@@](C)(c2cccc(O)c2)[C@@H](C)C1)NC(=O)CCc1ccc(O)cc1`: the inhibition in assay [6] came to 11%.
`CC(C)C(CN1CCC(C)(c2cccc(O)c2)C(C)C1)NC(=O)Cc1ccc(O)cc1` (configuration not stated): in assay [6], the inhibition was determined as 6%.
On the same count and under the same terms, the figure for `CC1CN(CCN(C)C(=O)CCc2ccc(O)cc2)CCC1(C)c1cccc(O)c1` (configuration not stated) is 0%.
`Oc1ccc2c3c1O[C@H]1c4[nH]c5c(c4C[C@@]4(O)[C@@H](C2)N(CC2CC2)CC[C@]314)C[C@@]1(O)[C@H]2Cc3ccc(O)c4c3[C@@]1(CCN2CC1CC1)[C@H]5O4` [NORBINALTORPHIMINE] came in with a Ki at Mu-type opioid receptor [1] of 16.7 nM.
On to `CC1CN(C[C@@H](NC(=O)CCc2ccc(O)cc2)C2CCCCC2)CCC1(C)c1cccc(O)c1` (some centres not stated), for which the inhibition constant (Ki) at Mu-type opioid receptor [5] is 234 nM; in assay [4] it was 83.1 nM.
Regarding `CC1CN(CCNC(=O)CCc2ccc(O)cc2)CCC1(C)c1cccc(O)c1` (configuration not stated), the inhibition in assay [6] was 11%.
